Assay results reported in publication PMC11868579 (Nature Communications, 2024).
Several values for one entry are separate records, joined by “and”; a condition that tells them apart may be missing. Equal entries are not always repeated. Blank lines part the entries; values can stand above or below the compound they belong to.

How the values were obtained:
[1] = system: cap-dependent and cap-independent (IRES) protein synthesis; experiment: Bicistronic protein synthesis reporter in H1299 cells; format: cell-based, human; settings: H1299; 100 μM, 24 hr; normalisation not stated
Description: H1299 cells were transfected with a biscistronic vector using Lipofectamine 3000 transfection reagent (Fisher Scientific, cat#L3000008) for 24 hr and then treated with compounds for further 24 h. Luminescence was measured after 24 h of compound treatment using the Dual Glo luciferase reporter assays as above.

[2] = molecular target: T1, eIF4E minor variant D127N (N127) (Homo sapiens, UniProt P06730, D127N); experiment: Isothermal titration calorimetry, eIF4E minor variant; format: binding; settings: for Kd: ITC; for Kd / LE (ligand efficiency): minor variant D127N
T1 construct: made in house; host or cells: E. coli BL21-CodonPlus (DE3)-RIPL
Description: ITC experiments were performed on either a MicroCal VP-ITC or a MicroCal Auto-ITC200 at 25 °C in a buffer comprising 50 mM HEPES, 100 mM NaCl, 1 mM TCEP and 5% DMSO at pH 7.5. Typical titrations on the MicroCal VP-ITC were performed using 17 × 16.4 µL injections with a 250 s spacing between each injection and with a stirring speed of 307 rpm. Typical titrations on the MicroCal Auto-ITC200 were performed using 12 × 3 µL injections with a 150 s spacing between each injection and with a stirring speed of 750 rpm. ITC data analyses were performed with Origin 7.0 software using the “One Set of Sites” model.

c-Myc-activity = experiment: c-Myc-regulated luciferase reporter in SW620 cells; format: cell-based, human; design: CMV, Average / c-Myc, Average: unit not given here; settings: for c-Myc, Average / CMV, Average: SW620; for c-Myc, Average: c-Myc-regulated firefly luciferase reporter; for CMV, Average: constitutive CMV promoter-regulated renilla luciferase reporter
Description: Luminescence was measured using the Dual-glo luciferase assay (mean ± SEM from 3 biological replicates). b SW620 cells were transfected with a c-Myc-regulated firefly luciferase expression reporter or a constitutive CMV promoter-regulated renilla luciferase reporter. Cells were treated for 24 hr with 1 or 10 µM compound 4 or the […] kinase inhibitor AZD8055 as positive control (mean ± SEM from 3 biological replicates). An ordinary one-way ANOVA with Tukey multiple comparisons test was performed comparing c-Myc-regulated firefly luciferase expression or CMV-regulated Renilla luciferase expression following the different treatments. For c-Myc-regulated firefly luciferase expression, all significant p values […]
were <0.0001. […]
Source data is located in the Supplementary Source Data file

MCL1 protein expression = experiment: Immunoblot of MCL1 in eIF4E-dTAG clones and rescue models; format: cell-based, human; settings: eIF4E-dTAG clones
Description: One sample t and Wilcoxon tests (two-sided), using 100% as hypothetical control value, were performed and compared with the control in each cell line. b, c Real-time cell growth measurements monitored every 4 h over a 6-day period. Cell confluency (%) was calculated using Incucyte Zoom software and (mean ± SEM n = 3 biological replicates). Ordinary one-way ANOVA with Tukey multiple comparisons test compared treatment with the control in each cell line. […] Vinculin was used as loading control. H1299 (PAR) cell lines were treated with 1 μM dTAG^V-1 only as qualitative control. Vinculin was used as loading control. […] Significant p-values (< 0.05) are shown on the plots and the source data is located in the Source Data file.
After seeding overnight in 6 well plates (Corning, cat#353046), cells were treated with compounds for the indicated times and concentration, harvested and the cell pellet lysed on ice in cell lysis buffer (Cell Signaling, cat#9803), supplemented with 1x Halt^TM protease inhibitor cocktail (Fisher Scientific, cat#78429) and cOmplete^TM protease inhibitor cocktail (Sigma-Aldrich, cat#11836153001) for 1 hr. Protein was quantified using BCA protein kit (Fisher Scientific, cat#23225). Western blot was performed using NuPAGE^TM 4–12% Bis-Tris gels (Fisher Scientific, cat#NP0336BOX) and transferred using the Invitrogen iBLOT^TM gel transfer device system (Fisher Scientific, Cat#IB21001). […] All primary antibodies were diluted (1:1000) in 5% BSA (Sigma-Aldrich, cat#A7906) in 1x TBS and 0.1% Tween 20 (Sigma-Aldrich, cat#P1379), except for vinculin (1:2000) that was diluted in casein blocker (Sigma-Aldrich, cat#1610782). This was followed by incubation with the secondary HRP-conjugated antibodies (anti-mouse HRP, Bio-rad, Watford, UK, cat#1705047; anti-rabbit HRP, Sigma-Aldrich, cat#NA934) in casein for 1 h at RT. ECL HRP substrate (SuperSignalTM West Pico, Fisher Scientific, cat#34578) was then added to detect protein targets by chemiluminescence and images acquired using the ChemiDocTM system (Bio-Rad). Quantitative densitometry analysis of protein bands was performed using Image J v1.53 software.

[3] = system: H1299 eIF4E-dTAG clones proteome; experiment: Global proteome profiling (DIA LC-MS/MS); format: cell-based, human; settings: 500 nM, 72 hr
Description: Cells (1 × 10^5 cells/ml) were lysed using SDS-free lysis and the lysate made up to 1 mL. Disulphide bounds were disrupted by reduction and alkylation. DTT was added to sample with a final concentration of 10 mM and incubated at 37 °C for 30 min. Iodoacetamide was then added to sample with a final concentration of 55 mM and incubated in the dark at room temperature for 30 min. The protein mixture was then enriched through a solid phase (SPE) C18 column. The C18 column was activated with 1 ml methanol at a rate of 3 drops/second, followed by 1 ml 0.1% formic acid to condition the column. The diluted protein mixture was loaded onto the column at 1 drop/sec, the column was washed with 3 ml 0.1% formic acid and enriched proteins were eluted with 800 μl 75% acetonitrile at a rate of 0.5 drops per second and the eluate was freeze-dried. The freeze-dried proteins were redissolved in 20 μl 50 mM ammonium bicarbonate and quantified according to the manufacturer’s instructions (Pierce Quantitative Fluorometric Peptide Assay cat# 23290). A small aliquot was removed for PAGE QC analysis on a 12% polyacrylamide gel. The remainder of the protein samples were digested with trypsin at a ratio of 1:20 for enzyme and proteins (w/w). The mixture was incubated for 14–16 h at 37 °C.
For DDA (Data Dependent Acquisition) library construction (Nano-LC-MS/MS) the dried peptide samples were reconstituted with mobile phase A (2% ACN, 0.1% FA), centrifuged at 20,000 g for 10 minutes, and the supernatant was taken for injection. Separation was carried out by a Thermo UltiMate 3000 UHPLC liquid chromatograph. […] The main parameters were set: ion source voltage was set to 1.9 kV, MS1 mass spectrometer scanning range was 350 ~ 1650 m/z; resolution was set to 120,000; maximal injection time (MIT) 90 ms; MS/MS collision type HCD, collision energy NCE 30; MS/MS resolution 30,000, MIT was auto mode, dynamic exclusion duration 120 seconds. The start m/z for MS/MS was fixed to auto mode. Precursor for MS/MS scan satisfied: charge range 2+ to 6 + , top 30 precursors with intensity over 2E4. AGC was: MS 300%, MS/MS 100%.
Peptides separated by liquid phase chromatography were ionized by a nanoESI source and then passed to an Orbitrap Exploris480 (Thermo Fisher Scientific, San Jose,CA) to acquire mass spectrometry data in DIA mode. The main parameters were set: ion source voltage was set to 1.9 kV, MS1 mass spectrometer scanning range was 400 ~ 1250 m/z; resolution was set to 120,000; maximal injection time (MIT) 90 ms; 400 ~ 1250 m/z was equally divided to 50 continuous windows MS/MS scan. MS/MS collision type HCD, collision energy NCE 30; MIT was auto mode. Fragment ions were scanned in Orbitrap, MS/MS resolution 30,000. AGC was: MS 300%, MS/MS 1000%.
DIA data was analysed using the iRT peptides for retention time calibration. Then, based on the target-decoy model applicable to SWATH-MS, false positive control was performed with FDR 1% to obtain significant quantitative results. MSstats was used for the statistical evaluation of significant differences in proteins or peptides from different samples. The core algorithm is linear mixed effect model that pre-processes the data according to the predefined comparison group, and then performed the significance test based on the model. Thereafter, differential protein screening was performed based on the fold change >2 and p-value < 0.05 as the criterion for the significant difference.

T1 sequence (P06730 36-217 D127N): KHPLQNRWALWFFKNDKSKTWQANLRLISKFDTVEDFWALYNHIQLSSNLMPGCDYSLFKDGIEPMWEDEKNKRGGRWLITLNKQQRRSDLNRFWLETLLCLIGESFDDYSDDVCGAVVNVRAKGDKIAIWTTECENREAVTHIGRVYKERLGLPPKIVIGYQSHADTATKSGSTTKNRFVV

SMILES: C[C@@H]1C[C@@H]([C@H](O)CC2CC(=O)NC(=O)C2)C(=O)[C@@H](C)C1 [CHX, cycloheximide, reference compound]
- protein synthesis reporter signal (cap-dependent luciferase / IRES luciferase), replicate values [1]: 0.353 and 0.410 and 0.685 and 0.311 and 0.478 and 0.325

- Kd [2]: 7400 µM
- LE (ligand efficiency) [2]: 0.19 (kcal/mol)/heavy atom
SMILES: O=C(O)C1(c2ccc(Cl)cc2)CCCC1 [Compound 2, 1-(4-chlorophenyl)cyclopentane-1-carboxylic acid]

SMILES: Oc1cccc(-c2ccccc2)c1 [Compound 1, [1,1'-biphenyl]-3-ol]
- Kd [2]: 400 µM
- LE (ligand efficiency) [2]: 0.36 (kcal/mol)/heavy atom

- Kd [2]: 20 µM
- improvement in affinity ([2]; compound 3 versus compound 1): 20 fold
- LE (ligand efficiency) [2]: 0.4 (kcal/mol)/heavy atom
SMILES: CC(O)c1ccc(-c2ccccc2F)cc1 (stereo not drawn) [Compound 3, 1-{2'-fluoro-[1,1'-biphenyl]-4-yl}ethan-1-ol]

SMILES: COc1ccc(-c2ccc3c(N4CCOC[C@@H]4C)nc(N4CCOC[C@@H]4C)nc3n2)cc1CO [AZD8055, reference compound]
- c-Myc, Average (c-Myc-activity; 1μM): 19.11
- CMV, Average (c-Myc-activity; 1μM): 86.61
- c-Myc, Average (c-Myc-activity; 10μM): 13.82
- CMV, Average (c-Myc-activity; 10μM): 130.75
- activity in c-Myc reporter assay (c-Myc-activity; SW620 cells, 1 or 10 µM, 24 hr): clearly inhibited activity

SMILES: CC[C@H](C(=O)N1CCCC[C@H]1C(=O)O[C@H](CCc1ccc(OC)c(OC)c1)c1ccccc1OCC(=O)NCCCCCCC(=O)N[C@H](C(=O)N1C[C@@H](O)C[C@@H]1C(=O)N[C@@H](C)c1ccc(-c2scnc2C)cc1)C(C)(C)C)c1cc(OC)c(OC)c(OC)c1 [neg-dTAG^V-1, reference compound]
- MCL1 protein after treatment (MCL1 protein expression): Loss of MCL1 protein was not observed

SMILES: CC[C@H](C(=O)N1CCCC[C@H]1C(=O)O[C@H](CCc1ccc(OC)c(OC)c1)c1ccccc1OCC(=O)NCCCCCCC(=O)N[C@H](C(=O)N1C[C@H](O)C[C@H]1C(=O)N[C@@H](C)c1ccc(-c2scnc2C)cc1)C(C)(C)C)c1cc(OC)c(OC)c(OC)c1 [dTAG-v1]
- Normalised signal intensity, A2M ([3]; H1299 C2-2 dTAG clone): 17.256
- Normalised signal intensity, AAAS (first entry, r5) ([3]; H1299 C2-2 dTAG clone): 16.230
- Normalised signal intensity, AAAS (second entry, r6) ([3]; H1299 C2-2 dTAG clone): 19.251
- Normalised signal intensity, AACS ([3]; H1299 C2-2 dTAG clone): 16.229
- Normalised signal intensity, A2M ([3]; H1299 C3-1 dTAG clone): 17.317
- Normalised signal intensity, AAAS (first entry, r5) ([3]; H1299 C3-1 dTAG clone): 15.976
- Normalised signal intensity, AAAS (second entry, r6) ([3]; H1299 C3-1 dTAG clone): 18.995
- Normalised signal intensity, AACS ([3]; H1299 C3-1 dTAG clone): 16.150
- Normalised signal intensity, A2M ([3]; H1299 N2-1 dTAG clone): 17.029
- Normalised signal intensity, AAAS (first entry, r5) ([3]; H1299 N2-1 dTAG clone): 15.914
- Normalised signal intensity, AAAS (second entry, r6) ([3]; H1299 N2-1 dTAG clone): 19.083
- Normalised signal intensity, AACS ([3]; H1299 N2-1 dTAG clone): 15.496
- Normalised signal intensity, A2M ([3]; H1299 N3-2 dTAG clone): 16.465
- Normalised signal intensity, AAAS (first entry, r5) ([3]; H1299 N3-2 dTAG clone): 15.682
- Normalised signal intensity, AAAS (second entry, r6) ([3]; H1299 N3-2 dTAG clone): 18.655
- Normalised signal intensity, AACS ([3]; H1299 N3-2 dTAG clone): 16.041
